A value given as a limit tells only on which side of the number the result lay.

The target in series [1] is CypA (Homo sapiens, UniProt P62937). The experiment in a line: CypA enzyme inhibition assay (chymotrypsin-coupled PPIase assay). As to conditions: mean ± SD of five independent experiments. The series is classed as biochemical. As to the method:
The PPIase activity of CypA was conducted in a coupled assay with chymotrypsin using the synthetic tetrapeptide N-succinyl-Ala-Ala-Pro-Phe-p-nitroanilide (Sigma, Shanghai, China) as described in [34] with small modifications. The assay buffer (20 mM Tris-HCl, 50 mM NaCl, pH 7.8) and CypA were precooled at 4 °C and mixed with 0.4 mg∙mL^−1 chymotrypsin (20 mg∙mL^−1 in 1 mM HCl). The reaction was initiated by adding peptide substrate (2 mg∙mL^−1 in 500 mM LiCl in tetrahydrofuran (THF)). […] Absorbance readings were collected every 0.1 s and the temperature was controlled at 4 °C during the assay. The progress curves were analyzed by nonlinear least-squares fit. The inhibition assays of compounds were performed in the same manner as above-mentioned. […] of test compounds in DMSO, at various concentrations, was added to the CypA solution in the assay buffer. After being preincubated for 1 h at 4 °C, the assay was started by the addition of chymotrypsin and the substrate. To calculate the half-maximal inhibitory concentration (IC50), a percent of the remaining PPIase activity was plotted against the common logarithm of the compound concentration, and the data were fitted using the sigmoidal fitting model of Origin 7.0 software.

Series [2] is described as follows: in vivo. As to conditions: male, SD, rat, iv, i.v. 2 mg 25/kg; for AUC(0-inf): AUC0-∞.
Where [3] appears, read: SD rats, Mean ± SD (Rat 1 and 3).

Sequence of CypA (P62937 whole entry): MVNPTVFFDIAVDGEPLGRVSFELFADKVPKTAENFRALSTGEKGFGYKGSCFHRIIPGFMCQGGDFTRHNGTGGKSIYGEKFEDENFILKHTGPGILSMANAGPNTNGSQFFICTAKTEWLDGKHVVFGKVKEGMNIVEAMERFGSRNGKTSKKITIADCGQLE

The molecule `CCCCCCCC(=O)Oc1cccc(O)c1C(=O)NC(=O)NC1c2ccccc2-c2ccccc21` [Compound 25, 1-(2-Hydroxy-6-n-Octanoyloxybenzoyl)-3-(9H-fluoren-9-yl)-urea] registered an IC50 in series [1] above 5 µM. Besides, the AUC(0-inf) in series [2] (SD rat, Rat 1) stood at 5.66 ng·h/mL; in series [2] (SD rat, Rat 3), 5.3 ng·h/mL; in series [2] (setting [3]), 5.48 ± 0.25 ng·h/mL. Besides, the Cmax in series [2] (SD rat, Rat 1) was found to be 13.4 ng/mL; in series [2] (SD rat, Rat 3), 27.5 ng/mL; in series [2] (setting [3]) it was 20.5 ± 9.99 ng/mL. Moreover, the MRT in series [2] (SD rat, Rat 1) worked out at 2.42 h; in series [2] (SD rat, Rat 3) it was 0.21 h; in series [2] (setting [3]) it was 1.3 ± 1.6 h. In addition, the half-life is 5.4 h in series [2] (t1/2, SD rat, Rat 1); 0.12 h in series [2] (t1/2, SD rat, Rat 3); 2.76 ± 3.73 h in series [2] (t1/2, SD rats, Mean ± SD (Rat 1 and 3)).

By IC50 is commonly meant the concentration that gives 50% inhibition. One may read the AUC(0-inf) as total exposure, with the tail of the curve extrapolated. The low end stands for low exposure, the high end for high exposure. By Cmax is commonly meant the highest concentration seen after dosing. The MRT is the average time that molecules of a dose stay in the body. What is called half-life is how long it takes for the measured level to halve.
